# Legend:
# [1] = system: Rattus norvegicus; experiment: Reduction in length (control value = 59.8+/-6) of gastric lesions induced by endomethacin was measured, after administration of 5 mg/kg po in rats; assay type: functional, Stomach
# [2] = system: Rattus norvegicus; experiment: Percent inhibition of gastric lesions induced by endomethacin was measured, after administration of 7.5 mg/kg po in rats; assay type: functional; settings: Stomach
# [3] = system: Rattus norvegicus; experiment: Reduction in length (control value = 159.2+/-21) of gastric lesions induced by ethanol was measured, after administration of 15 mg/kg po in rats; assay type: functional, Stomach
# [4] = system: Rattus norvegicus; experiment: Percent inhibition of gastric lesions induced by ethanol was measured, after administration of 15 mg/kg po in rats; assay type: functional; settings: Stomach
# [5] = system: Rattus norvegicus; experiment: Reduction in length (control value = 59.8+/-6) of gastric lesions induced by endomethacin was measured, after administration of 2.5 mg/kg po in rats; assay type: functional, Stomach
# [6] = system: Rattus norvegicus; experiment: Acid output from the stomach (control value = 120.3+/-19.7) in pylorus ligated rats (5 mg/kg po of the Compound was administered 1 hr before the pylorus ligation); assay type: functional
# [7] = system: Rattus norvegicus; experiment: Volume of the gastric juice (Control value = 4.7+/-0.4) of stomach content of pylorus ligated rats was measured (5 mg/kg po of the Compound was administered 1 hr before the pylorus ligation); assay type: functional
# [8] = system: Rattus norvegicus; experiment: Percent inhibition of gastric lesions induced by ethanol was measured, after administration of 10 mg/kg po in rats; assay type: functional; settings: Stomach
# [9] = system: Rattus norvegicus; experiment: Volume of the gastric juice (Control value = 4.7+/-0.4) of stomach content of pylorus ligated rats was measured (20 mg/kg po of the Compound was administered 1 hr before the pylorus ligation); assay type: functional
# [10] = system: Rattus norvegicus; experiment: Acid output from the stomach (control value = 120.3+/-19.7) in pylorus ligated rats (10 mg/kg po of the Compound was administered 1 hr before the pylorus ligation); assay type: functional
# [11] = system: Rattus norvegicus; experiment: Reduction in length (control value = 59.8+/-6) of gastric lesions induced by endomethacin was measured, after administration of 7.5 mg/kg po in rats; assay type: functional, Stomach
# [12] = system: Rattus norvegicus; experiment: Acid output from the stomach (control value = 120.3+/-19.7) in pylorus ligated rats (20 mg/kg po of the Compound was administered 1 hr before the pylorus ligation); assay type: functional
# [13] = system: Rattus norvegicus; experiment: pH of the gastric juice (Control value = 1.42+/-0.02) of stomach content of pylorus ligated rats was measured (20 mg/kg po of the Compound was administered 1 hr before the pylorus ligation); assay type: ADME, organism-based; settings: in vivo
# [14] = system: Rattus norvegicus; experiment: Reduction in length (control value = 159.2+/-21) of gastric lesions induced by endomethacin was measured, after administration of 20 mg/kg po in rats; assay type: functional, Stomach
# [15] = system: Rattus norvegicus; experiment: Percent inhibition of gastric lesions induced by ethanol was measured, after administration of 20 mg/kg po in rats; assay type: functional; settings: Stomach
# [16] = system: Rattus norvegicus; experiment: Percent inhibition of gastric lesions induced by endomethacin was measured, after administration of 10 mg/kg po in rats; assay type: functional; settings: Stomach
# [17] = system: Rattus norvegicus; experiment: pH of the gastric juice (Control value = 1.42+/-0.02) of stomach content of pylorus ligated rats was measured (5 mg/kg po of the Compound was administered 1 hr before the pylorus ligation); assay type: ADME, organism-based; settings: in vivo
# [18] = system: Rattus norvegicus; experiment: Percent inhibition of gastric lesions induced by endomethacin was measured, after administration of 2.5 mg/kg po in rats; assay type: functional; settings: Stomach
# [19] = system: Rattus norvegicus; experiment: Volume of the gastric juice (Control value = 4.7+/-0.4) of stomach content of pylorus ligated rats was measured (10 mg/kg po of the Compound was administered 1 hr before the pylorus ligation); assay type: functional
# [20] = system: Rattus norvegicus; experiment: pH of the gastric juice (Control value = 1.42+/-0.02) of stomach content of pylorus ligated rats was measured (10 mg/kg po of the Compound was administered 1 hr before the pylorus ligation); assay type: ADME, organism-based; settings: in vivo
# [21] = system: Rattus norvegicus; experiment: Reduction in length (control value = 159.2+/-21) of gastric lesions induced by ethanol was measured, after administration of 10 mg/kg po in rats; assay type: functional, Stomach
# [22] = system: Rattus norvegicus; experiment: Percent inhibition of gastric lesions induced by endomethacin was measured, after administration of 5 mg/kg po in rats; assay type: functional; settings: Stomach
# [23] = system: Rattus norvegicus; experiment: Percent inhibition of gastric lesions induced by ethanol was measured, after administration of 2.5 mg/kg po in rats; assay type: functional; settings: Stomach
# [24] = system: Rattus norvegicus; experiment: Percent inhibition of gastric lesions induced by ethanol was measured, after administration of 5 mg/kg po in rats; assay type: functional; settings: Stomach
# [25] = system: Rattus norvegicus; experiment: Reduction in length (control value = 126+/-9.1) of gastric lesions induced by ethanol was measured, after administration of 2.5 mg/kg po in rats; assay type: functional, Stomach
# [26] = system: Rattus norvegicus; experiment: Reduction in length ((control value = 126+/-9.1) of gastric lesions induced by ethanol was measured, after administration of 5 mg/kg po in rats; assay type: functional, Stomach
structure (smiles),measurement,setting,value
COc1ccc2[nH]c([S+]([O-])Cc3ncc(C)c(OC)c3C)nc2c1 (stereo unspecified) [OMEPRAZOLE],Length,[1],24.6 mm
same,inhibition in vivo at 7.5 mg/kg,[2],86.6%
same,Length,[3],28.6 mm
same,inhibition in vivo at 15 mg/kg,[4],82%
same,Length,[5],34.4 mm
same,Acid output,[6],62.6 u equiv hr-1
same,Volume,[7],3.3 ml 4hr-1
same,inhibition in vivo at 10 mg/kg,[8],43.1%
same,Volume,[9],2.2 ml 4hr-1
same,Acid output,[10],46.8 u equiv hr-1
same,Length,[11],8 mm
same,Acid output,[12],14.6 u equiv hr-1
same,pH,[13],5.54
same,Length,[14],16.9 mm
same,inhibition in vivo at 20 mg/kg,[15],89.4%
same,inhibition in vivo at 10 mg/kg,[16],98.2%
same,pH,[17],1.63
same,inhibition in vivo at 2.5 mg/kg,[18],42.5%
same,Volume,[19],2.5 ml 4hr-1
same,pH,[20],1.8
same,Length,[21],90.6 mm
same,inhibition in vivo at 5 mg/kg,[22],58.9%
C[C@@H](CC[C@@]1(O)O[C@H]2C[C@H]3[C@@H]4CC=C5C[C@@H](O[C@@H]6O[C@H](CO)[C@@H](O)[C@H](O[C@@H]7O[C@H](CO)[C@@H](O)[C@H](O)[C@H]7O)[C@H]6O[C@@H]6O[C@@H](C)[C@H](O)[C@@H](O)[C@H]6O)CC[C@]5(C)[C@H]4CC[C@]3(C)[C@H]2[C@@H]1C)CO[C@@H]1O[C@H](CO)[C@@H](O)[C@H](O)[C@H]1O [PROTOGRACILLIN],inhibition in vivo at 2.5 mg/kg,[23],8.5%
same,inhibition in vivo at 5 mg/kg,[24],14.1%
same,Length,[25],115 mm
same,Length,[26],108 mm

# Source: ChEMBL document CHEMBL1144970, “Protective effects of steroid saponins from Paris polyphylla var. yunnanensis on ethanol- or indomethacin-induced gastric mucosal lesions in rats: structural requirement for activity and mode of action” (Bioorg Med Chem Lett, 2003)
